The source of these data is patent publication US20120328569A1, “INHIBITORS OF HEPATITIS C VIRUS NS5B POLYMERASE” (priority 2010, published 2012).

The assay relates to HCV genotype 1b replicon. Briefly: HCV replicon assay, cell ELISA with antibody to replicon-encoded NS3/4A (genotype 1b replicon). The format is cell-based, hepatitis C virus. Particulars: Hepatitis C virus, 96 h, read-out: Replicon 1b IC50 (nM), HCV genotype 1b replicon cells, 96 hours incubation, NS3/4A ELISA readout. In short, it runs like this:
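An ELISA on lysed cells, using an antibody against NS3/4A protease, served as the proxy for replicon RNA. Cells had first been exposed for 96 h to serially diluted compound in G418-free conditions. Percent of DMSO control was fitted with a four-parameter function to give IC50.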
A general note: Replicon systems follow genome replication, usually without infectious particles.

For `CNC(=O)c1c(-c2ccc(F)cc2)oc2cc(N(C)S(C)(=O)=O)c(-c3cccc(CNS(C)(=O)=O)c3)cc12` [Example 102, 2-(4-fluorophenyl)-N-methyl-6-[methyl(methylsulfonyl)amino]-5-(3-{[(methylsulfonyl)amino]methyl}phenyl)-1-benzofuran-3-carboxamide], the IC50 amounted to 7 nM.

For `CNC(=O)c1c(-c2ccc(F)cc2)oc2cc(N(C)S(C)(=O)=O)c(-c3cccc(CNS(=O)(=O)c4ccccc4)c3)cc12` [Example 103, 2-(4-fluorophenyl)-N-methyl-6-[methyl(methylsulfonyl)amino]-5-(3-{[(phenylsulfonyl)amino]methyl}phenyl)-1-benzofuran-3-carboxamide], the IC50 is less than 8 nM.

Regarding `CNC(=O)c1c(-c2ccc(F)cc2)oc2cc(N(C)S(C)(=O)=O)c(-c3ccc(CNS(C)(=O)=O)cc3)cc12` [Example 104], the IC50 amounted to 164 nM.

For the compound `CNC(=O)c1c(-c2ccc(F)cc2)oc2cc(N(C)S(C)(=O)=O)c(-c3ccc(CNS(=O)(=O)c4ccccc4)cc3)cc12` [Example 105, 2-(4-fluorophenyl)-N-methyl-6-[methyl (methylsulfonyl)amino]-5-(4-{[(phenylsulfonyl)amino]methyl}phenyl)-1-benzofuran-3-carboxamide], the IC50 worked out at 57 nM.

With `CNC(=O)c1c(-c2ccc(F)cc2)oc2cc(N(C)S(C)(=O)=O)c(-c3ccc(C(F)(F)F)cc3)cc12` [Example 108, 2-(4-fluorophenyl)-N-methyl-6-[methyl(methylsulfonyl)amino]-5-[4-(trifluoromethyl)phenyl]-1-benzofuran-3-carboxamide], the IC50 amounted to 53 nM.

Consider `CNC(=O)c1c(-c2ccc(F)cc2)oc2cc(N(C)S(C)(=O)=O)c(-c3ccc(OC(C)C)cc3)cc12` [Example 109, 2-(4-fluorophenyl)-N-methyl-6-[methyl(methylsulfonyl)amino]-5-[4-(propan-2-yloxy)phenyl]-1-benzofuran-3-carboxamide], for which the IC50 was 216 nM.

As for `CCc1ccc(-c2cc3c(C(=O)NC)c(-c4ccc(F)cc4)oc3cc2N(C)S(C)(=O)=O)cc1` [Example 110, 5-(4-ethylphenyl)-2-(4-fluorophenyl)-N-methyl-6-[methyl(methylsulfonyl)amino]-1-benzofuran-3-carboxamide], the IC50 is 90 nM.

For the compound `CNC(=O)c1c(-c2ccc(F)cc2)oc2cc(N(C)S(C)(=O)=O)c(-c3cc(F)cc(F)c3)cc12` [Example 111, 5-(3,5-difluorophenyl)-2-(4-fluorophenyl)-N-methyl-6-[methyl(methylsulfonyl)amino]-1-benzofuran-3-carboxamide], the IC50 was determined as 40 nM.

For `CNC(=O)c1c(-c2ccc(F)cc2)oc2cc(N(C)S(C)(=O)=O)c(-c3ccc(-c4ccccc4)cc3)cc12` [Example 112, 5-(biphenyl-4-yl)-2-(4-fluorophenyl)-N-methyl-6-[methyl(methylsulfonyl)amino]-1-benzofuran-3-carboxamide], the IC50 was less than 8 nM.

Regarding `CNC(=O)c1c(-c2ccc(F)cc2)oc2cc(N(C)S(C)(=O)=O)c(-c3ccc(O)cc3)cc12` [Example 113, 2-(4-fluorophenyl)-5-(4-hydroxyphenyl)-N-methyl-6-[methyl(methylsulfonyl)amino]-1-benzofuran-3-carboxamide], the IC50 amounted to 74 nM.

As to `CNC(=O)c1c(-c2ccc(F)cc2)oc2cc(N(CCNCc3ccccc3)S(C)(=O)=O)c(-c3ccccc3)cc12` [Example 123, 6-{[2-(benzylamino)ethyl](methylsulfonyl)amino}-2-(4-fluorophenyl)-N-methyl-5-phenyl-1-benzofuran-3-carboxamide], the IC50 amounted to 111 nM.

Consider `CNC(=O)c1c(-c2ccc(F)cc2)oc2cc(N(CCN(C)Cc3ccccc3)S(C)(=O)=O)c(-c3ccccc3)cc12` [Example 124, 6-[{2-[benzyl(methyl)amino]ethyl} (methylsulfonyl)amino]-2-(4-fluorophenyl)-N-methyl-5-phenyl-1-benzofuran-3-carboxamide], for which the IC50 was greater than 10000 nM.

Consider `CNC(=O)c1c(-c2ccc(F)cc2)oc2cc(N(C)S(C)(=O)=O)c(-c3cccc(-c4nc5ccccc5s4)c3)cc12` [Example 135, 5-(3-(benzo[d]thiazol-2-yl)phenyl)-2-(4-fluorophenyl)-N-methyl-6-(N-methylmethylsulfonamido)-1-benzofuran-3-carboxamide], for which the IC50 came out at 4 nM.

With `CNC(=O)c1c(-c2ccc(F)cc2)oc2cc(N(C)S(C)(=O)=O)c(-c3cccc(-c4cnc(-c5ccccc5)s4)c3)cc12` [Example 136, 2-(4-fluorophenyl)-N-methyl-6-[methyl (methylsulfonyl)amino]-5-[3-(2-phenyl-1,3-thiazol-5-yl)phenyl]-1-benzofuran-3-carboxamide], the IC50 was determined as 16 nM.

`CNC(=O)c1c(-c2ccc(F)cc2)oc2cc(N(C)S(C)(=O)=O)c(-c3cccc(-c4nnc(-c5ccccc5)o4)c3)cc12` [Example 137, 2-(4-fluorophenyl)-N-methyl-6-[methyl (methylsulfonyl)amino]-5-[3-(5-phenyl-1,3,4-oxadiazol-2-yl)phenyl]-1-benzofuran-3-carboxamide]: the IC50 came out at 6 nM.

Take `CNC(=O)c1c(-c2ccc(F)cc2)oc2cc(N(C)S(C)(=O)=O)c(-c3cccc(-c4noc5ccccc45)c3)cc12` [Example 138, 5-[3-(1,2-benzisoxazol-3-yl)phenyl]-2-(4-fluorophenyl)-N-methyl-6-[methyl (methylsulfonyl)amino]-1-benzofuran-3-carboxamide]: the IC50 amounted to 9 nM.

On to `CNC(=O)c1c(-c2ccc(F)cc2)oc2cc(N(C)S(C)(=O)=O)c(-c3cccc(-c4nnn(Cc5ccccc5)n4)c3)cc12` [Example 139, 5-[3-(2-benzyl-2H-tetrazol-5-yl)phenyl]-2-(4-fluorophenyl)-N-methyl-6-[methyl (methylsulfonyl)amino]-1-benzofuran-3-carboxamide], for which the IC50 was found to be 5 nM.

In the case of `CNC(=O)c1c(-c2ccc(F)cc2)oc2cc(N(C)S(C)(=O)=O)c(-c3cccc(-c4nnn(CC(=O)O)n4)c3)cc12` [Example 140, [5-(3-{2-(4-fluorophenyl)-3-(methylcarbamoyl)-6-[methyl (methylsulfonyl)amino]-1-benzofuran-5-yl}phenyl)-2H-tetrazol-2-yl]acetic acid], the IC50 was found to be 1190 nM.

On to `CNC(=O)c1c(-c2ccc(F)cc2)oc2cc(N(C)S(C)(=O)=O)c(-c3cccc(-c4cn5ccccc5n4)c3)cc12` [Example 141, 2-(4-fluorophenyl)-5-[3-(imidazo[1,2-a]pyridin-2-yl)phenyl]-N-methyl-6-[methyl (methylsulfonyl)amino]-1-benzofuran-3-carboxamide], for which the IC50 is 3 nM.

`CNC(=O)c1c(-c2ccc(F)cc2)oc2cc(N(C)S(C)(=O)=O)c(-c3cccc(-c4nc5cccnc5s4)c3)cc12` [Example 142, 2-(4-fluorophenyl)-N-methyl-6-[methyl (methylsulfonyl)amino]-5-[3-([1,3]thiazolo[5,4-b]pyridin-2-yl)phenyl]-1-benzofuran-3-carboxamide]: the IC50 worked out at 1 nM.

For `CNC(=O)c1c(-c2ccc(F)cc2)oc2cc(N(C)S(C)(=O)=O)c(-c3cccc(-c4nc5ccc(C)cc5s4)c3)cc12` [Example 143, 2-(4-fluorophenyl)-N-methyl-5-[3-(6-methyl-1,3-benzothiazol-2-yl)phenyl]-6-[methyl(methylsulfonyl)amino]-1-benzofuran-3-carboxamide], the IC50 stood at 8 nM.

For `CNC(=O)c1c(-c2ccc(F)cc2)oc2cc(N(C)S(C)(=O)=O)c(-c3ccc(OC)c(-c4nc5ccccc5s4)c3)cc12` [Example 144, 5-[3-(1,3-benzothiazol-2-yl)-4-methoxyphenyl]-2-(4-fluorophenyl)-N-methyl-6-[methyl (methylsulfonyl)amino]-1-benzofuran-3-carboxamide], the IC50 came out at 11 nM.

Consider `CNC(=O)c1c(-c2ccc(F)cc2)oc2cc(N(C)S(C)(=O)=O)c(-c3ccc(F)c(-c4nc5ccccc5s4)c3)cc12` [Example 145, 5-[3-(1,3-benzothiazol-2-yl)-4-fluorophenyl]-2-(4-fluorophenyl)-N-methyl-6-[methyl (methylsulfonyl)amino]-1-benzofuran-3-carboxamide], for which the IC50 was determined as 6 nM.

Regarding `CNC(=O)c1c(-c2ccc(F)cc2)oc2cc(N(C)S(C)(=O)=O)c(-c3cccc(-c4nc5c(C)cccc5s4)c3)cc12` [Example 146, 2-(4-fluorophenyl)-N-methyl-5-[3-(4-methyl-1,3-benzothiazol-2-yl)phenyl]-6-[methyl (methylsulfonyl)amino]-1-benzofuran-3-carboxamide], the IC50 came to 15 nM.

On to `CNC(=O)c1c(-c2ccc(F)cc2)oc2cc(N(C)S(C)(=O)=O)c(-c3cccc(-c4nc5ccc(F)cc5s4)c3)cc12` [Example 147, 5-[3-(6-fluoro-1,3-benzothiazol-2-yl)phenyl]-2-(4-fluorophenyl)-N-methyl-6-[methyl (methylsulfonyl)amino]-1-benzofuran-3-carboxamide], for which the IC50 came out at 7 nM.

With `CNC(=O)c1c(-c2ccc(F)cc2)oc2cc(N(C)S(C)(=O)=O)c(-c3cccc(-c4nc5cc(Cl)ccc5s4)c3)cc12` [Example 148, 5-[3-(5-chloro-1,3-benzothiazol-2-yl)phenyl]-2-(4-fluorophenyl)-N-methyl-6-[methyl (methylsulfonyl)amino]-1-benzofuran-3-carboxamide], the IC50 turned out to be 9 nM.

In the case of `CNC(=O)c1c(-c2ccc(F)cc2)oc2cc(N(C)S(C)(=O)=O)c(-c3cccc(-c4nc5cc(C(F)(F)F)ccc5s4)c3)cc12` [Example 149, 2-(4-fluorophenyl)-N-methyl-6-[methyl (methylsulfonyl)amino]-5-{3-[5-(trifluoromethyl)-1,3-benzothiazol-2-yl]phenyl}-1-benzofuran-3-carboxamide], the IC50 was 11 nM.

Regarding `CNC(=O)c1c(-c2ccc(F)cc2)oc2cc(N(C)S(C)(=O)=O)c(-c3cccc(-c4nc5cc(F)ccc5[nH]4)c3)cc12` [Example 150, 5-[3-(5-fluoro-1H-benzimidazol-2-yl)phenyl]-2-(4-fluorophenyl)-N-methyl-6-[methyl(methylsulfonyl)amino]-1-benzofuran-3-carboxamide], the IC50 stood at 1 nM.
